From patent US20240181125A1, “COMPOSITIONS AND METHODS FOR SCARLESS WOUND HEALING IN DIABETES” (Washington University, priority 2022, published 2024)
Bridge positions count the residues as written; N and C are the ends. Peptide text beside a SMILES is read from it. * marks the point of attachment. FITC = O=C1OC2(c3ccc(O)cc3Oc3cc(O)ccc32)c2ccc(NC(=S)*)cc21

How the values were obtained:
[1] = tested on: human aortic endothelial cells (HAEC); experiment: Cytotoxicity of PTβR2I on endothelial cells; type: cell-based; design: dose or concentration left out as unconfirmed
HAECs [2] = experiment: mRNA expression (RT-PCR), HAECs; type: cell-based, human; conditions: high glucose and TGFβ1
Experimental: (§1) To determine the mRNA expression of the cells (HDFs, HaCaTs, and HAECs) treated with TGFβ1 (10 ng/ml) or TGFβ1 (10 ng/ml)/PTβR2I (10 μg/mL) under high glucose conditions, RNA was extracted using Trizol (Invitrogen) and reverse transcribed using a cDNA synthesis kit (Applied Biosystems). Gene expression was performed by real-time RT-PCR, using Maxima SYBR Green/Fluorescein Master Mix (Thermofisher) and selected primer pairs, shown in Table 1 below. β-actin served as the housekeeping gene. The ΔΔCt method was used for data analysis.

TGFβ1/p-Smad2/3 pathway = experiment: Immunoblotting/IF of p-Smad2/3 and α-SMA in HDFs; type: cell-based, human
Experimental: For in vitro tests, protein lysates were collected from HDFs. Pre-cooled cell scrapers were used to detach the cells, and the cells were re-suspended in RIPA lysis buffer with the inhibitor cocktail. For in vivo tests, wound skin tissues were washed three times with pre-cooled DPBS, dissected into small pieces, and re-suspended in RIPA lysis buffer containing protease and phosphatase inhibitors. Homogenization was then performed thereafter with an ultrasonic processor (Cole Parmer). After centrifugation at 12,000 g for 20 min, the supernatants were collected, and protein concentrations were measured using a Bradford protein assay kit (Bio-rad).
The protein samples were separated by 10% Mini-PROTEAN TGX stain-free precast gels (Bio-rad) and transferred onto an immune-blot PVDF membrane. The blots were washed three times with DPBS containing 0.1% Tween 20 (PBST), blocked with 5% milk powder in PBST buffer for 40 min, and incubated with primary antibodies at specific dilutions overnight at 4° C. The primary antibodies included rabbit GAPDH antibody (1:5000, Cell signaling), rabbit anti-a-smooth muscle actin (α-SMA) antibody (1:2000, Cell signaling), rabbit anti-phospho-Smad2(Ser465/467)/Smad3 (Ser423/425) (1:500, Cell signaling), and rabbit anti-phospho-p38 (1:500, Cell signaling). The membranes were washed three times with PBST and incubated with horseradish peroxidase (HRP)-conjugated secondary antibodies (1:2500). Immunoblots were then washed with PBST and detected with a WesternBright HRP substrate detection kit (Advansta). The ChemiDoc XPS+system (Bio-rad) was used to image the blots.

HAECs [3] = experiment: Endothelial cell lumen formation in 3D collagen gel; type: cell-based, human; conditions: high glucose and TGFβ1
Experimental: A 3D collagen gel model was used to evaluate endothelial cell lumen formation under high glucose and TGFβ1 conditions. Briefly, the collagen gel was formed by mixing 4 mg/ml of rat tail type I collagen solution (Life Technologies), FBS, DMEM, and NaOH. Then 500 μL of the mixture was transferred to a 48-well plate and placed in a 37° C. incubator for 30 minutes to allow gelation. HAECs were then seeded into the collagen gel at a density of 2×10^4 cells/well. TGFβ1 (10 ng/ml) or TGFβ1 (10 ng/ml)/PTβR2I (10 μg/mL) was then added. After three days of culturing, cells were stained with F-actin (Abcam, ab176753) and DAPI (Millipore-Sigma). The constructs were imaged by
Olympus FV1200 confocal microscopy with z-stack mode. The lumen density was calculated from the images.

TβR2 on the HDFs = biological target: T1, TβR2 on the HDFs (Homo sapiens, UniProt P37173); experiment: Bioactivity of released PTβR2I (cell binding assay on HDFs); type: cell-based; conditions: released on days 3, 8, 14; loadings 10, 20, 50 μg/mL
T1 construct: host or cells: human dermal fibroblasts (HDFs)
Experimental: Wound dressings were fabricated by encapsulating PTβR2I in the hydrogel solution at 4° C. Briefly, PTβR2I solution was mixed with 6 wt. % hydrogel solution to reach final PTβR2I concentrations of 10 μg/mL, 20 μg/mL and 50 μg/mL. The mixtures were stirred at 4° C. for 12 hours. To determine PTβR2I release kinetics, the mixtures were first incubated at 37° C. to gel. After 1 hour, the supernatant was replaced by a release medium (DPBS with 1% P/S). The medium was then collected at pre-determined time points for 21 days, and a fresh release medium was added after each collection. The concentration of the released PTβR2I was determined by measuring the fluorescence intensity and calculating the corresponding concentration using a standard curve. The bioactivity of the released PTβR2I was evaluated by its ability to bind to the TβR2 on the HDFs. The collected released medium was added to the culture medium of HDFs that were seeded in a 96-well plate. After 2 hours of incubation, the cells were washed three times with DPBS, and the fluorescence intensity was measured using a microplate reader (excitation/emission=485/535 nm).

HaCaTs = experiment: mRNA expression (RT-PCR), HaCaTs; type: cell-based, human; conditions: high glucose and TGFβ1
Experimental: as §1

T1 sequence (P37173 23-567): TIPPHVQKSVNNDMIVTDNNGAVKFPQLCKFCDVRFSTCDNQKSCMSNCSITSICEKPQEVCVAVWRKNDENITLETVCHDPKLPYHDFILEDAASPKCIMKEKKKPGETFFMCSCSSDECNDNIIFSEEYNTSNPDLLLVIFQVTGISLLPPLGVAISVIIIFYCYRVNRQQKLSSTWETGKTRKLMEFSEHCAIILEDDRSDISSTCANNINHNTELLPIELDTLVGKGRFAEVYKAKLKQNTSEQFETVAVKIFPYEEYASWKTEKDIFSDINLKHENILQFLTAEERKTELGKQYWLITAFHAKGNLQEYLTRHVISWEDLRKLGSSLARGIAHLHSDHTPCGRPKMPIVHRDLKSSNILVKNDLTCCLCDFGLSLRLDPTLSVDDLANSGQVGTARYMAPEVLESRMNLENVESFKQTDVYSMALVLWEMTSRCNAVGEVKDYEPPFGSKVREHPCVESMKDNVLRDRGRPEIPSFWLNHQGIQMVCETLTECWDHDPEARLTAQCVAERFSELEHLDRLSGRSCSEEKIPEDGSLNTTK

bioactivity of released PTβR2I (TβR2 on the HDFs): remained bioactive
Compound: CC(C)C[C@@H]1NC(=O)CNC(=O)[C@@H](NC(=O)[C@@H](N)CCC(=O)O)CSSC[C@@H](C(=O)N[C@@H](CCCCNC(=S)Nc2ccc3c(c2)C(=O)OC32c3ccc(O)cc3Oc3cc(O)ccc32)C(=O)O)NC(=O)[C@H](CC(C)C)NC(=O)[C@H](CCCNC(=N)N)NC(=O)[C@H](Cc2c[nH]c3ccccc23)NC(=O)[C@H](C(C)C)NC(=O)[C@H](CCCNC(=N)N)NC(=O)[C@H](CC(=O)O)NC(=O)[C@@H]2CCCN2C(=O)[C@H](CCCNC(=N)N)NC(=O)CNC(=O)[C@H](C(C)C)NC(=O)[C@@H]2CCCN2C(=O)[C@H](CC(C)C)NC1=O [PTβR2I, ECGLLPVGRPDRVWRLCK-FITC] (H-ECGLLPVGRPDRVWRLCK(FITC)-OH; disulfide 2-17; N-terminus and C-terminus assumed)
cell viability [1]: no decrease in viability
HGF gene expression (HAECs [2]): significantly enhanced
VEGFA gene expression (HAECs [2]): significantly enhanced
phosphorylation of Smad2/3, PTβR2I with TGFβ1 vs TGFβ1 alone (TGFβ1/p-Smad2/3 pathway; high glucose): no substantial difference
α-SMA+ myofibroblast formation in presence of TGFβ1 (TGFβ1/p-Smad2/3 pathway; high glucose): regardless of the addition of PTβR2I
expression of downstream marker α-SMA (TGFβ1/p-Smad2/3 pathway; high glucose, TGFβ1): did not alter
TGFβ1/p-Smad2/3 pathway (TGFβ1/p-Smad2/3 pathway; normal glucose): apparently inhibited
lumen density (HAECs [3]): significantly increased the lumen density
IL1B mRNA expression (HaCaTs): significantly reduced
IL6 mRNA expression (HaCaTs): significantly reduced
